Source: patent publication US8361711B2, “Tools and methods useful in characterising the immunotoxic activity of xenobiotic substances” (National Institute of Public Health and the Environment, …, priority 2004, dated 2013)
Structures can show the parent of a compound that is named as a salt.

Assays:
[1] = tested on: β-actin promoter dEGFP reporter, EL/pCA-dEGFP/9 (EL4); test: Prototype cell chip, flow cytometry, control clone; format: cell-based
Procedure: (§1) Samples were analyzed in an EPICS® XL-MCL Coulter flow cytometer with Expo v.2 Analysis Software/Expo32 Analysis Software (Applied Cytometry Systems, Sheffield, UK). or any other suitable flow cytometer. Viable and dead cells were gated separately and results were determined based on fluorescence associated with viable cells only. Regions were set in control cells and the same regions were used in induction controls and chemically challenged cells. Percent positive cells and fluorescence intensity were noted and used in further calculations.
(§2) Index numbers were calculated from the median fluorescence intensity of viable cells. Cells incubated in the absence or presence of ionomycin/PMA were analysed separately. Each clone incubated with or without ionomycin/PMA, but without further chemicals/compounds was defined as index number=1, and the index numbers for the other exposures were calculated from this. Experiments with the same exposures were pooled to perform statistical analysis, using SigmaStat 2.03 statistical analysis software (SPSS Inc., Chicago, Ill. USA).
(§3) One way ANOVAs (one way analysis of variance) were performed. In cases where normality failed, we used Kruskal-Wallis One Way Analysis of Variance on Ranks. If the differences between groups were statistically significant (p<0.05), we continued with tests for multiple comparisons. In normally distributed data we used Bonferroni t-test and multiple comparisons versus the control. The control was chosen to be the sample incubated in the presence or absence of ionomycin/PMA only. When normality failed we used […] for multiple comparisons versus the control.
(§4) The following cell lines: EL/pCA-dEGFP/9, EL/p1-5′IL2-dEGFP/6, EL/p2-5′ IL4-dEGFP/2, EL/p1-5′IFNγ-dEGFP/3, and EL/p2-5′IL10-dEGFP/5, obtained by transfection with the DNA constructs containing promoter region derived from β-actin, IL2, IL4, INF-γ, and IL10 were employed to design the prototype cell chip. The prototype cell chip was used to test the activity of different substances.

[2] = tested on: IL-2 promoter dEGFP reporter, EL/p1-5′IL2-dEGFP/6 (EL4); test: Prototype cell chip, flow cytometry, IL-2 clone; format: cell-based, mouse
Procedure: as §1, §2, §3, §4

[3] = tested on: IL-4 promoter dEGFP reporter, EL/p2-5′IL4-dEGFP/2 (EL4); test: Prototype cell chip, flow cytometry, IL-4 clone; format: cell-based, mouse
Procedure: as §1, §2, §3, §4

[4] = tested on: IL-10 promoter dEGFP reporter, EL/p2-5′IL10-dEGFP/5 (EL4); test: Prototype cell chip, flow cytometry, IL-10 clone; format: cell-based
Procedure: as §1, §2, §3, §4

[5] = tested on: IFN-γ promoter dEGFP reporter, EL/p1-5′IFNγ-dEGFP/3 (EL4); test: Prototype cell chip, flow cytometry, IFN-γ clone; format: cell-based, mouse
Procedure: as §1, §2, §3, §4

[6] = tested on: IL-2 fused to a stabile form of EGFP; test: Clones with IL-2 regulatory elements fused to a stabile form of EGFP; format: cell-based, mouse
Procedure: as §1
as §2, with “this.” for “this. Experiments with the same exposures were pooled to perform statistical analysis, using SigmaStat 2.03 statistical analysis software (SPSS Inc., Chicago, Ill. USA).”
as §3

[7] = tested on: IFN-γ fused to a stabile form of EGFP; test: Clones with IFN-γ regulatory elements fused to a stabile form of EGFP; format: cell-based, mouse
Procedure: as §1
as §2, with “this.” for “this. Experiments with the same exposures were pooled to perform statistical analysis, using SigmaStat 2.03 statistical analysis software (SPSS Inc., Chicago, Ill. USA).”
as §3

[8] = tested on: cell lines developed in the project; test: Cytotoxicity (cell viability) testing, LDH release; details: for concentration which led to 10% cytotoxicity: highest concentration used on the cell chip
Procedure: The basic cytotoxicty assay employed was LDH release. Several cytotoxicity assays were performed independently in two laboratories. […] In addition, the cytotoxicity associated with the solvent was also tested to eliminate the possibility of interference in the test outcome.
Cells were plated in 24 well microtiter plates at a density of 0.5×10^6 cells/mL and with a final volume of 1.5 mL/well. Two controls were included for each cell line, in each experiment.

[9] = tested on: J/p4-5′IL1β-dEGFP/4 reporter cell line; format: cell-based
[10] = tested on: IL-1β promoter dEGFP reporter, J/p4-5′IL1β-dEGFP/4 cells; format: cell-based, mouse
[11] = tested on: IL-2 reporter cells EL/p1-5′IL2-EGFP/3 and EL/p1-5′IL2-dEGFP/6 (EL4); test: Preliminary test of IL-2 reporter cells (FACS, fluorescence microscope, Fluorostar); format: cell-based, mouse
IFNγ = test: RT-PCR of endogenous cytokine expression in activated reporter cell lines; format: cell-based
Procedure: (§5) In order to correlate the GFP expression data with effects on the expression of endogenous cytokine mRNA, RT-PCR analysis was performed. Non-transfected EL4 and BW5147.3 cells were activated with TPA/ionomycin or anti-CD3 and RNA was prepared. Following cDNA synthesis PCR was performed to detect expression of IL-2, IFNγ, and GAPDH (control). The results generally agree with the GFP expression data. In BW5147.3 cells neither IL-2, nor IFNγ mRNA, could be detected in non-induced cells or after activation. In EL4 cells, IL-2 and IFNγ expression could be induced by TPA/ionomycin, but not anti-CD3.
(§6) For EL4 derived cells basal GFP expression was not affected following treatment with any of the above chemicals. […] This inhibitory effect of Cyclosporine was observed independently in all three laboratories performing such experiments. Furthermore, this inhibition of EGFP expression was detected with all three techniques emplyed for EGFP measurements (i.e. FACS, fluorescence microscope, and Fluorostar).

IL-2 = test: as above; format: cell-based
Procedure: as §5, §6

[12] = tested on: BW5147.3 derived GFP transfected cell clones; test: BW5147.3 derived GFP transfected cell clones, GFP expression; format: cell-based
Excerpt: BW5147.3 derived GFP transfected cell clones have been also used to test the effects of immunomodulatory compounds.

[13] = absence of ionomycin/PMA, highest concentration
[14] = presence of ionomycin/PMA, highest concentration
[15] = absence of ionomycin/PMA, all tested concentrations
[16] = presence of ionomycin/PMA, all tested concentrations, 24 h
[17] = presence of ionomycin/PMA, 1:10 dilution
[18] = presence of ionomycin/PMA, 1:100 dilution
[19] = absence of ionomycin/PMA, highest concentration, 24 h
[20] = presence of ionomycin/PMA, all tested concentrations
[21] = presence of ionomycin/PMA, highest concentration, 24 h
[22] = presence of ionomycin/PMA, 1:10 dilution, 24 h
[23] = absence of ionomycin/PMA, 1:10 dilution, 24 h

## O=C1CCC(N2C(=O)c3ccccc3C2=O)C(=O)N1 (racemic) [thalidomide, (+/−)—Thalidomide]
[1]; [13]
  actin clone, inhibition: 5-10%
[1]; [14]
  actin clone fluorescence vs control: inhibited
[2]; [15]
  IL-2 clone fluorescence vs control: did not show any significant changes
[2]; [16]
  IL-2 clone fluorescence vs control: only actin inhibited
[3]; [15]
  IL-4 clone fluorescence vs control: did not show any significant changes
[3]; [16]
  IL-4 clone fluorescence vs control: only actin inhibited
[4]; [15]
  IL-10 clone fluorescence vs control: did not show any significant changes
[4]; [16]
  IL-10 clone fluorescence vs control: only actin inhibited
[5]; [15]
  IFN-γ clone fluorescence vs control: did not show any significant changes
[5]; [16]
  IFN-γ clone fluorescence vs control: only actin inhibited
[6]; [13]
  IL-2 inhibition, stabile EGFP clone: 10%
[6]; [17]
  IL-2 expression, stabile EGFP clone: did not show detectable effects
[6]; [18]
  IL-2 expression, stabile EGFP clone: did not show detectable effects
[6]; [14]
  IL-2 expression, stabile EGFP clone: dose-dependent inhibition
[7]; [17]
  IFN-γ expression, stabile EGFP clone: did not show detectable effects
[7]; [18]
  IFN-γ expression, stabile EGFP clone: did not show detectable effects
[7]; [14]
  IFN-γ expression, stabile EGFP clone: dose-dependent inhibition
[8]
  toxicity (LDH-assay): did not find thalidomide to be toxic

## O=[N+]([O-])c1ccc(Cl)c([N+](=O)[O-])c1 [DNCB, 1-Chloro-2,4-dinitrobenzene]
[1]; [19]
  actin clone fluorescence vs control: increased expression
[1]; [16]
  actin clone fluorescence vs control: no statistically significant changes were found
[2]; [19]
  IL-2 clone fluorescence vs control: increased expression
[2]; [16]
  IL-2 clone fluorescence vs control: no statistically significant changes were found
[3]; [19]
  IL-4 clone fluorescence vs control: increased expression
[3]; [16]
  IL-4 clone fluorescence vs control: no statistically significant changes were found
[4]; [16]
  IL-10 clone fluorescence vs control: no statistically significant changes were found
[5]; [19]
  IFN-γ clone fluorescence vs control: increased expression
[5]; [16]
  IFN-γ clone fluorescence vs control: no statistically significant changes were found
[6]; [20]
  IL-2 expression, stabile EGFP clone: failed to alter expression
[7]; [13]
  IFN-γ expression, stabile EGFP clone: apparently dose-dependent increase reaching statistical significance at the highest concentration
[7]; [20]
  IFN-γ expression, stabile EGFP clone: failed to alter expression
[8]
  concentration which led to 10% cytotoxicity: 10 µM

## [Cl][Pt-2]([Cl])([Cl])[Cl].[K+].[K+] [K2PtCl4, Potassium tetrachloro-platinate (II)]
[9]
  NO levels in supernatants: elevated levels
[10]
  GFP fluorescence under microscope: didn′t show noticeable fluorescence
[10]; 100 μM, stimulated for 6 h
  mRNA for GFP: upregulation of mRNA for GFP
[6]; [15]
  IL-2 expression, stabile EGFP clone: exposure effects were not observed
[6]; [14]
  IL-2 expression, stabile EGFP clone: dose-dependent reduction
[7]; [15]
  IFN-γ expression, stabile EGFP clone: exposure effects were not observed
[7]; [14]
  IFN-γ expression, stabile EGFP clone: dose-dependent reduction

## CO[C@H]1C[C@@H]2CC[C@@H](C)[C@@](O)(O2)C(=O)C(=O)N2CCCC[C@H]2C(=O)O[C@H]([C@H](C)C[C@@H]2CC[C@@H](O)[C@H](OC)C2)CC(=O)[C@H](C)/C=C(\C)[C@@H](O)[C@@H](OC)C(=O)[C@H](C)C[C@H](C)/C=C/C=C/C=C/1C [Rapamycin]
[8]
  concentration which led to 10% cytotoxicity: 10000 ng/mL

## CCCCCCCCCCCCOS(=O)(=O)[O-].[Na+] [SDS, Sodium Dodecyl Sulphate]
[6]; [15]
  IL-2 expression, stabile EGFP clone: exposure effects were not observed
[6]; [14]
  IL-2 expression, stabile EGFP clone: apparently dose-dependent reduction
[7]; [15]
  IFN-γ expression, stabile EGFP clone: exposure effects were not observed
[7]; [20]
  IFN-γ expression, stabile EGFP clone: not affected

## CCC[CH2][Sn]([CH2]CCC)([CH2]CCC)[O][Sn]([CH2]CCC)([CH2]CCC)[CH2]CCC [TBTO, Bis(tri-n-butyltin) oxide]
[6]; [15]
  IL-2 expression, stabile EGFP clone: failed to show altered expression
[6]; [17]
  IL-2 expression, stabile EGFP clone: statistically significant inhibition
  IL-2 inhibition, stabile EGFP clone: 10%
[7]; [15]
  IFN-γ expression, stabile EGFP clone: failed to show altered expression

## Clc1cc2c(cc1Cl)Oc1cc(Cl)c(Cl)cc1O2 [TCDD]
[11]; EL4 derived cells, not activated
  basal GFP expression: not affected
[11]; activation with TPA/ionophore
  activation induced GFP expression: did not have any effect
IFNγ
  upregulation of expression of IFNγ (RT-PCR): had no effect
IL-2
  upregulation of expression of IL-2 (RT-PCR): had no effect
[12]
  basal GFP expression: did not affect the basal GFP expression

## Cc1ccc(N=C=O)cc1N=C=O [TDI, Tolylene 2,4-diisocyanate]
[3]; [21]
  IL-4 clone fluorescence vs control: statistically significant increase
[5]; [19]
  IFN-γ clone fluorescence vs control: significant induction
[8]
  concentration which led to 10% cytotoxicity: 500 µM

## CCOC(=O)c1ccc(N)cc1 [benzocaine, Ethyl-4-Aminobenzoate]
[1]; [19]
  actin clone fluorescence vs control: significantly increased
[2]; [22]
  IL-2 clone fluorescence vs control: statistically significant inhibitory effect
[2]; [21]
  IL-2 clone fluorescence vs control: statistically significant inhibitory effect
[4]; [22]
  IL-10 clone fluorescence vs control: statistically significant inhibitory effect
[4]; [21]
  IL-10 clone fluorescence vs control: statistically significant inhibitory effect
[5]; [21]
  IFN-γ clone fluorescence vs control: inhibited
[8]
  toxicity (LDH-assay): did not find benzocaine to be toxic

## [Cl][Hg][Cl] [mercuric chloride, Mercury (II) chloride]
[6]; [15]
  IL-2 expression, stabile EGFP clone: exposure effects were not observed
[6]; [20]
  IL-2 expression, stabile EGFP clone: not affected
[7]; [15]
  IFN-γ expression, stabile EGFP clone: exposure effects were not observed
[7]; [14]
  IFN-γ expression, stabile EGFP clone: apparently dose-dependent reduction

## N=C(N)c1ccc(OCCCCCOc2ccc(C(=N)N)cc2)cc1 [pentamidine, Pentamidine isethionate salt]
[1]; [23]
  actin clone fluorescence vs control: increase
[1]; [19]
  actin clone fluorescence vs control: increase
[1]; [16]
  actin clone fluorescence vs control: not altered
[2]; [22]
  IL-2 clone fluorescence vs control: suppressed
[2]; [21]
  IL-2 clone fluorescence vs control: suppressed
[3]; [22]
  IL-4 clone fluorescence vs control: suppressed
[3]; [21]
  IL-4 clone fluorescence vs control: suppressed
[4]; [23]
  IL-10 clone fluorescence vs control: clearly inhibited
[4]; [19]
  IL-10 clone fluorescence vs control: clearly inhibited
[4]; [22]
  IL-10 clone fluorescence vs control: suppressed
[4]; [21]
  IL-10 clone fluorescence vs control: suppressed
[5]; [21]
  IFN-γ clone fluorescence vs control: suppressed
[8]
  concentration which led to 10% cytotoxicity: 30000 ng/mL
